Measurements reported in the supplement of paper PMC10307832.

These cell lines were tested with NCC(=O)Nc1ccc(-n2nc(C(F)(F)F)cc2-c2ccc3c(ccc4ccccc43)c2)cc1 + COc1cccc2cc(-c3nc([C@H]4CC[C@H](C(=O)O)CC4)n4ncnc(N)c34)[nH]c12 [OSI-027] (partner 0.5 µM) (assay: relative viability (nuclei count vs DMSO), 5 days (fraction); higher = more cells survive). Conditions: first compound 0.2 µM.
Summary of the method: (§1)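 Relative viability is defined as nuclei in treated wells over nuclei in vehicle wells. Duplicate plates were run and medians reported. Lung cancer cell lines in 1536-well plates were dosed by pin tool one day after seeding, with one drug or with a fixed anchor-drug dose plus five library-drug doses (not always all listed) in √10 steps, and nuclei were counted after 5 days.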
Cell Line ChaGo-K-1 has a relative viability of 0.468.
Cell Line NCI-H2170 has a relative viability of 0.711.
With NCI-H2405 the relative viability was 0.699.
Cell Line HOP-62 has a relative viability of 0.828.
Cell Line HCC-44 has a relative viability of 0.592.
NCI-H522 was tested, and the relative viability was 0.697.
With LU99A the relative viability was 0.303.
In the case of BEN, the relative viability is reported as 0.296.
HARA showed a relative viability of 0.597.
Work on SW 900 yielded a relative viability of 0.627.
Work on HCC-78 yielded a relative viability of 0.329.
In the case of NCI-H441, the relative viability is reported as 0.613.
For NCI-H1395, the relative viability was 0.693.
NCI-H1793 showed a relative viability of 0.321.
For NCI-H1563, the relative viability was 0.761.

Same assay, conditions: first compound 0.6325 µM
With NCI-H2342 the relative viability was 0.539.
NCI-H1623 gave a relative viability of 0.494.
In the case of NCI-H727, the relative viability is reported as 0.694.
With NCI-H1650 the relative viability was 0.73.
Cell Line NCI-H1993 has a relative viability of 0.483.
With SW 1573 the relative viability was 0.487.
With NCI-H838 the relative viability was 0.425.
With LCLC-103H the relative viability was 0.575.
NCI-H520 showed a relative viability of 0.243.
NCI-H2126 gave a relative viability of 0.741.
Work on EMC-BAC-2 yielded a relative viability of 0.361.
For NCI-H2085, the relative viability was 0.691.
HCC-366 was tested, and the relative viability was 0.848.
NCI-H1666 was tested, and the relative viability was 0.845.
NCI-H596 gave a relative viability of 0.727.
LK-2 gave a relative viability of 0.246.
NCI-H2087 gave a relative viability of 0.483.
Cell Line NCI-H1648 has a relative viability of 0.227.
In the case of SK-MES-1, the relative viability is reported as 0.616.
With H3255 the relative viability was 0.667.
COR-L23 was tested, and the relative viability was 0.693.
Work on COR-L 105 yielded a relative viability of 0.776.
LOU-NH91 gave a relative viability of 0.716.
Cell Line ChaGo-K-1 has a relative viability of 0.592.
NCI-H2170 showed a relative viability of 0.824.
Work on NCI-H2405 yielded a relative viability of 0.642.
Work on HOP-62 yielded a relative viability of 0.778.
HCC-44 showed a relative viability of 0.651.
In the case of NCI-H522, the relative viability is reported as 0.699.
Cell Line LU99A has a relative viability of 0.272.
Cell Line BEN has a relative viability of 0.326.
With HARA the relative viability was 0.549.
With SW 900 the relative viability was 0.648.
In the case of HCC-78, the relative viability is reported as 0.347.
For NCI-H441, the relative viability was 0.551.
NCI-H1395 showed a relative viability of 0.642.
For NCI-H1793, the relative viability was 0.276.
NCI-H1563 was tested, and the relative viability was 0.771.

Same assay, conditions: first compound 2 µM
Cell Line NCI-H2342 has a relative viability of 0.648.
Work on NCI-H1623 yielded a relative viability of 0.432.
Cell Line NCI-H727 has a relative viability of 0.737.
For NCI-H1650, the relative viability was 0.634.
Work on NCI-H1993 yielded a relative viability of 0.542.
Cell Line SW 1573 has a relative viability of 0.551.
In the case of NCI-H838, the relative viability is reported as 0.469.
With LCLC-103H the relative viability was 0.429.
NCI-H520 showed a relative viability of 0.234.
For NCI-H2126, the relative viability was 0.631.
EMC-BAC-2 was tested, and the relative viability was 0.387.
NCI-H2085 showed a relative viability of 0.802.
HCC-366 showed a relative viability of 0.816.
NCI-H1666 showed a relative viability of 0.861.
NCI-H596 showed a relative viability of 0.799.
LK-2 gave a relative viability of 0.174.
Cell Line NCI-H2087 has a relative viability of 0.626.
In the case of NCI-H1648, the relative viability is reported as 0.273.
SK-MES-1 gave a relative viability of 0.646.
With H3255 the relative viability was 0.596.
Work on COR-L23 yielded a relative viability of 0.755.
For COR-L 105, the relative viability was 0.6.
LOU-NH91 was tested, and the relative viability was 0.735.
ChaGo-K-1 showed a relative viability of 0.548.
For NCI-H2170, the relative viability was 0.735.
NCI-H2405 was tested, and the relative viability was 0.689.
HOP-62 was tested, and the relative viability was 0.812.
In the case of HCC-44, the relative viability is reported as 0.497.
NCI-H522 was tested, and the relative viability was 0.713.
In the case of LU99A, the relative viability is reported as 0.295.
With BEN the relative viability was 0.297.
For HARA, the relative viability was 0.596.
In the case of SW 900, the relative viability is reported as 0.507.
HCC-78 was tested, and the relative viability was 0.41.
For NCI-H441, the relative viability was 0.631.
NCI-H1395 gave a relative viability of 0.686.
Cell Line NCI-H1793 has a relative viability of 0.251.
Cell Line NCI-H1563 has a relative viability of 0.719.

What follows are cell lines tested with C1CSC2=C(C(=O)N1)SC3=C2C=C(C=C3)O [kb NB 142-70] + C[C@@H](Oc1cc(-c2cnn(C3CCNCC3)c2)cnc1N)c1c(Cl)ccc(F)c1Cl [Crizotinib] (partner 1 µM) in the same assay as above. Conditions: first compound 0.1 µM.
Summary of the method: as §1
NCI-H727 gave a relative viability of 0.752.
NCI-H1650 was tested, and the relative viability was 0.833.
EBC-1 gave a relative viability of 0.196.
NCI-H1703 was tested, and the relative viability was 0.681.
Work on NCI-H1993 yielded a relative viability of 0.842.
With SW 1573 the relative viability was 0.832.
For NCI-H838, the relative viability was 0.782.
With LCLC-103H the relative viability was 0.997.
NCI-H520 showed a relative viability of 0.869.
Work on NCI-H2126 yielded a relative viability of 1.04.
For EMC-BAC-2, the relative viability was 0.782.
NCI-H2085 was tested, and the relative viability was 0.754.
Calu-6 showed a relative viability of 0.748.
Work on HCC-366 yielded a relative viability of 0.533.
Cell Line NCI-H1666 has a relative viability of 1.09.
With NCI-H596 the relative viability was 1.03.
LK-2 showed a relative viability of 0.225.
With NCI-H2087 the relative viability was 0.562.
SK-MES-1 gave a relative viability of 1.01.
For H3255, the relative viability was 0.97.
Work on COR-L23 yielded a relative viability of 0.679.
For COR-L 105, the relative viability was 0.564.
In the case of IA-LM, the relative viability is reported as 0.856.
Work on LOU-NH91 yielded a relative viability of 0.75.
In the case of ChaGo-K-1, the relative viability is reported as 1.1.
With NCI-H2170 the relative viability was 1.21.
With NCI-H2405 the relative viability was 0.796.
HOP-62 gave a relative viability of 0.869.
HCC-44 gave a relative viability of 0.777.
Cell Line A549 has a relative viability of 0.762.
LU99A showed a relative viability of 0.577.
BEN gave a relative viability of 0.791.
For HARA, the relative viability was 0.922.
For HCC-78, the relative viability was 0.305.
NCI-H441 was tested, and the relative viability was 0.958.
NCI-H1299 showed a relative viability of 0.928.
In the case of NCI-H1563, the relative viability is reported as 0.864.

Same assay, conditions: first compound 1 µM
With NCI-H727 the relative viability was 1.06.
In the case of NCI-H1650, the relative viability is reported as 1.01.
Cell Line EBC-1 has a relative viability of 0.209.
NCI-H1703 showed a relative viability of 0.866.
Cell Line NCI-H1993 has a relative viability of 0.892.
In the case of SW 1573, the relative viability is reported as 0.815.
In the case of NCI-H838, the relative viability is reported as 0.914.
Work on LCLC-103H yielded a relative viability of 1.12.
In the case of NCI-H520, the relative viability is reported as 0.825.
NCI-H2126 showed a relative viability of 1.06.
EMC-BAC-2 was tested, and the relative viability was 0.893.
For NCI-H2085, the relative viability was 0.814.
Calu-6 showed a relative viability of 0.839.
HCC-366 showed a relative viability of 0.633.
For NCI-H1666, the relative viability was 0.871.
In the case of NCI-H596, the relative viability is reported as 1.03.
Cell Line LK-2 has a relative viability of 0.226.
For NCI-H2087, the relative viability was 0.903.
Work on SK-MES-1 yielded a relative viability of 1.02.
H3255 gave a relative viability of 0.776.
COR-L23 showed a relative viability of 0.818.
For COR-L 105, the relative viability was 0.816.
Work on IA-LM yielded a relative viability of 1.25.
LOU-NH91 gave a relative viability of 0.732.
ChaGo-K-1 gave a relative viability of 1.16.
For NCI-H2170, the relative viability was 1.22.
With NCI-H2405 the relative viability was 0.885.
